Measured values published in patent US8598157B2, “5-alkynyl-pyridines” (Boehringer Ingelheim International GmbH, priority 2011, dated 2013).

Assays:
[1] = tested on: MB453 cells; assay: alamarBlue MB453 cell assay (antiproliferative/cytotoxicity); format: cell-based; details: Homo sapiens; MDA MB 453 breast cancer cell line
In short: (§1)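 EC50 from alamarBlue fluorescence (590 nm emission) after 5-6 d treatment with serially diluted compound, 10 μM max final concentration; dye incubation 8 h at 37 °C.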

[2] = tested on: MCF7 cells; assay: alamarBlue MCF7 cell assay (antiproliferative/cytotoxicity); format: cell-based; details: MCF7 human breast cancer cell line
In short: as §1

[3] = molecular target: PI3Kalpha (Homo sapiens (Human), UniProt P42336); assay: Inhibition of PI3Kalpha-induced PIP-2 phosphorylation (filter-binding assay); format: biochemical; details: 33P-ATP, p85alpha/His-p110alpha, read-out: IC50 PI3Kα
In short: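 Radiometric filter-binding assay: PI3Kα (25 ng/well) preincubated 20 min at room temperature with compound and PIP2-containing lipid vesicles plus phosphotyrosine PDGFRβ peptide. Reaction started with cold ATP (1 μM final) and [33P]-ATP and run 120 min at room temperature; filter-captured radioactivity counted, IC50 from duplicate dilution series.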

[4] = tested on: U87 cells; assay: U87 cell assay (antiproliferative/cytotoxicity); format: cell-based; details: U-87MG human glioblastoma cells
In short: as §1

[5] = tested on: H460 cells; assay: alamarBlue H460 cell assay (antiproliferative/cytotoxicity); format: cell-based; details: NCI-H460; H460 human lung carcinoma cells
In short: as §1

[6] = tested on: BT474 cells; assay: alamarBlue BT474 cell assay (antiproliferative/cytotoxicity); format: cell-based; details: BT-474 human breast cancer cell line
In short: as §1

PI3Kalpha, sequence (P42336 whole entry): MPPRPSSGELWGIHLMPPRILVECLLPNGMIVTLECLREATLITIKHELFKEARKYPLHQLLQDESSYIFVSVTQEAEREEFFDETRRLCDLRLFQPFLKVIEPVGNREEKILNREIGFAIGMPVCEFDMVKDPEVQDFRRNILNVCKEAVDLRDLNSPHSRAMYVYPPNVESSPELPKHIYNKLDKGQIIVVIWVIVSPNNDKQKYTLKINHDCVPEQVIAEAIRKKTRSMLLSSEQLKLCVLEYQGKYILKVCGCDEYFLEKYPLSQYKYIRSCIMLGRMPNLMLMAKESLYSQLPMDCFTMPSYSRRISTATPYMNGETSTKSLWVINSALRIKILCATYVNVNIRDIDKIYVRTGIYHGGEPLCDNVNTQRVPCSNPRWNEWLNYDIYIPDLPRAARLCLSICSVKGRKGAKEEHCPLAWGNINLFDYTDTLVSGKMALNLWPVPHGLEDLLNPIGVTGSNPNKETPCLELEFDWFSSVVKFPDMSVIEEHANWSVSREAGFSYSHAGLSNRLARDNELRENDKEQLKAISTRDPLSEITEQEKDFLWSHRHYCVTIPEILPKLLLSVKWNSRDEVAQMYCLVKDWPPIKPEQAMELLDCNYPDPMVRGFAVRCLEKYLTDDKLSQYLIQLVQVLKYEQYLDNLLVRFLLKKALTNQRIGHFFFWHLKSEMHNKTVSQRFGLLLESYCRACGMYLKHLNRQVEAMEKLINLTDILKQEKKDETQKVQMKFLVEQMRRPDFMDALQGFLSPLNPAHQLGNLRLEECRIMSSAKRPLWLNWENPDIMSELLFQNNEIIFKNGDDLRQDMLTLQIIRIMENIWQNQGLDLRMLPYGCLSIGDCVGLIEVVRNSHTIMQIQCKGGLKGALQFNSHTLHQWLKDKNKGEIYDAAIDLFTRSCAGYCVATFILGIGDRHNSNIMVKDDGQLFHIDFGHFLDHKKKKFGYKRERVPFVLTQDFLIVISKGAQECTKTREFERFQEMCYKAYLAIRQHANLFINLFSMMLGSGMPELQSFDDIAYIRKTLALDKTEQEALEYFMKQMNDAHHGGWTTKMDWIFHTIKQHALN

| Structure (SMILES) | IC50 [3] [nM] | EC50 [1] [nM] | EC50 [2] [nM] | EC50 [4] [nM] | EC50 [5] [nM] | EC50 [6] [nM] |
| --- | --- | --- | --- | --- | --- | --- |
| Cc1ncc(C#Cc2c(C)ncnc2N2CCOCC2)cc1NS(=O)(=O)C1CCCCC1 [Example I-39, Cyclohexanesulfonic acid [2-methyl-5-(4-methyl-6-morpholin-4-yl-pyrimidin-5-ylethynyl)-pyridin-3-yl]-amide] | 5 | 1790 | 1290 | 2910 | 1850 | 2770 |
| Cc1ncc(C#Cc2c(C)ncnc2N2CCOCC2)cc1NS(=O)(=O)c1ccc(F)cc1F [Example I-41, 2,4-Difluoro-N-[2-methyl-5-(4-methyl-6-morpholin-4-yl-pyrimidin-5-ylethynyl)-pyridin-3-yl]-benzenesulfonamide] | 0.51 | 102 | 19 | 287 | 146 | 69 |
| Cc1ncc(C#Cc2c(C)ncnc2N2CCOCC2)cc1NS(=O)(=O)c1cnoc1C [Example I-47, 5-Methyl-isoxazole-4-sulfonic acid [2-methyl-5-(4-methyl-6-morpholin-4-yl-pyrimidin-5-ylethynyl)-pyridin-3-yl]-amide] | 21 | 25000 | 10000 | 25000 | 25000 | 10000 |
| Cc1cc(S(=O)(=O)Nc2cc(C#Cc3c(C)ncnc3N3CCOCC3)cnc2C)c(C)s1 [Example I-48, 2,5-Dimethyl-thiophene-3-sulfonic acid [2-methyl-5-(4-methyl-6-morpholin-4-yl-pyrimidin-5-ylethynyl)-pyridin-3-yl]-amide] | 0.55 | 533 | 14 | 341 | 100 | 754 |
| Cc1ncc(C#Cc2c(C)ncnc2N2CCOCC2)cc1NS(=O)(=O)c1ccco1 [Example I-49, Furan-2-sulfonic acid [2-methyl-5-(4-methyl-6-morpholin-4-yl-pyrimidin-5-ylethynyl)-pyridin-3-yl]-amide] | 2 | 393 | 49 | 512 | 356 | 444 |
| Cc1ncc(C#Cc2c(C)ncnc2N2CCOCC2)cc1NS(=O)(=O)c1ccc(Cl)s1 [Example I-52, 5-Chloro-thiophene-2-sulfonic acid [2-methyl-5-(4-methyl-6-morpholin-4-yl-pyrimidin-5-ylethynyl)-pyridin-3-yl]-amide] | 0.47 | 298 | 39 | 443 | 274 | 224 |
| Cc1ncc(C#Cc2c(C)ncnc2N2CCOCC2)cc1NS(=O)(=O)c1c(C)noc1C [Example I-53, 3,5-Dimethyl-isoxazole-4-sulfonic acid [2-methyl-5-(4-methyl-6-morpholin-4-yl-pyrimidin-5-ylethynyl)-pyridin-3-yl]-amide] | 2 | 915 | 135 | 1280 | 793 | 884 |
| Cc1ncc(C#Cc2c(C)ncnc2N2CCOCC2)cc1NS(=O)(=O)c1cn(C)c(C)n1 [Example I-55, 1,2-Dimethyl-1H-imidazole-4-sulfonic acid [2-methyl-5-(4-methyl-6-morpholin-4-yl-pyrimidin-5-ylethynyl)-pyridin-3-yl]-amide] | 1 | 1680 | 208 | 1980 | 1180 | 1550 |
| Cc1ncc(C#Cc2c(C)ncnc2N2CCOCC2)cc1NS(=O)(=O)c1ccnn1C [Example I-56, 2-Methyl-2H-pyrazole-3-sulfonic acid [2-methyl-5-(4-methyl-6-morpholin-4-yl-pyrimidin-5-ylethynyl)-pyridin-3-yl]-amide] | 0.44 | 239 | 125 | 779 | 756 | 487 |

Continued, in another order:

| IC50 [3] [nM] | Structure (SMILES) | EC50 [1] [nM] | EC50 [2] [nM] | EC50 [4] [nM] | EC50 [5] [nM] | EC50 [6] [nM] |
| --- | --- | --- | --- | --- | --- | --- |
| 0.28 | Cc1ncc(C#Cc2c(C)ncnc2N2CCOCC2)cc1NS(=O)(=O)c1ccccc1 [Example I-40, N-[2-Methyl-5-(4-methyl-6-morpholin-4-yl-pyrimidin-5-ylethynyl)-pyridin-3-yl]-benzenesulfonamide] | 145 | 49 | 386 | 120 | 147 |
| 1 | Cc1ncc(C#Cc2c(C)ncnc2N2CCOCC2)cc1NS(=O)(=O)c1ccoc1 [Example I-50, Furan-3-sulfonic acid [2-methyl-5-(4-methyl-6-morpholin-4-yl-pyrimidin-5-ylethynyl)-pyridin-3-yl]-amide] | 239 | 16 | 289 | 128 | 330 |
| 1 | Cc1ncc(C#Cc2c(C)ncnc2N2CCOCC2)cc1NS(=O)(=O)c1cccnc1 [Example I-54, Pyridine-3-sulfonic acid [2-methyl-5-(4-methyl-6-morpholin-4-yl-pyrimidin-5-ylethynyl)-pyridin-3-yl]-amide] | 274 | 44 | 581 | 553 | 949 |
| 0.83 | COCCN1CCN(c2ncnc(C)c2C#Cc2cnc(C)c(NS(=O)(=O)c3ccccc3)c2)CC1 [Example I-57, N-(5-{4-[4-(2-Methoxy-ethyl)-piperazin-1-yl]-6-methyl-pyrimidin-5-ylethynyl}-2-methyl-pyridin-3-yl)-benzenesulfonamide] | 443 | 2 | 338 | 82 | 1300 |
| 16 | Cc1ncc(C#Cc2c(C)ncnc2N2CCN(C3CC3)CC2)cc1NS(=O)(=O)c1ccccc1 [Example I-58, N-{5-[4-(4-Cyclopropyl-piperazin-1-yl)-6-methyl-pyrimidin-5-ylethynyl]-2-methyl-pyridin-3-yl}-benzenesulfonamide] | 4640 | 1300 | 25000 | 2990 | 3000 |
| 2 | Cc1ncc(C#Cc2c(C)ncnc2N2CCN(C)C(=O)C2)cc1NS(=O)(=O)c1ccccc1 [Example I-60, N-{2-Methyl-5-[4-methyl-6-(4-methyl-3-oxo-piperazin-1-yl)-pyrimidin-5-ylethynyl]-pyridin-3-yl}-benzenesulfonamide] | 618 | 103 | 945 | 1250 | 1540 |
| 2 | CC(=O)N1CCN(c2ncnc(C)c2C#Cc2cnc(C)c(NS(=O)(=O)c3ccccc3)c2)CC1 [Example I-61, N-{5-[4-(4-Acetyl-piperazin-1-yl)-6-methyl-pyrimidin-5-ylethynyl]-2-methyl-pyridin-3-yl}-benzenesulfonamide] | 262 | 39 | 631 | 791 | 1120 |
| 3 | CC(=O)N1CCCN(c2ncnc(C)c2C#Cc2cnc(C)c(NS(=O)(=O)c3ccccc3)c2)CC1 [Example I-62, N-{5-[4-(4-Acetyl-[1,4]diazepan-1-yl)-6-methyl-pyrimidin-5-ylethynyl]-2-methyl-pyridin-3-yl}-benzenesulfonamide] | 969 | 709 | 1290 | 1740 | 4050 |
